In patent EP0335545B2, “Pharmaceutical formulations for parenteral use” (UNIVERSITY OF FLORIDA, priority 1988, dated 1989):
In brackets after ≈: the same amount, converted by molar mass.

Experiments:
[1] = Observation of toxicity on injection (Experiments 1-3); format: in vivo, Male Sprague-Dawley rats; details: rats
Protocol: On day 15 after orchidectomy, rats were ether-anesthetized and the right external jugular vein exposed. Animals were then administered one of the following: testosterone-chemical delivery system (T-CDS1 or T-CDS2), testosterone (Steraloids Inc., Wilton, NH) or the vehicle, dimethyl sulfoxide (DMSO; Fisher Scientific, Fair Lawn, NJ). The testosterone-chemical delivery systems were given at doses equimolar to testosterone (25 mg/kg) so that T-CDS1 was administered at 35.5 mg/kg and rats received T-CDS2 at a dose of 45.1 mg/kg. DMSO was injected at a volume of 1 mL/kg. All compounds were administered by infusion over a 2 minute period. One milliliter of blood was withdrawn from the external jugular vein immediately before giving the drugs (1000 hours) and blood was sampled by cardiac puncture after 6, 12, 24 hours and on days 4 and 7. The sera were separated by centrifugation at 500 x g for 20 min at 4°C and stored at -20°C.
Two weeks after orchidectomy, rats were administered either T-CDS1, testosterone propionate (TP; Steraloids Inc.) or DMSO by means of intravenous infusion into the right external jugular vein in an effort to more effectively enhance the brain delivery of testosterone. It has been shown that slow infusion improves brain delivery of drugs attached to the chemical-delivery systems. […]

[2] = Solubilizing effect of a 50% w/w solution of HPCD on steroids and CDS; details: 50% w/w aqueous hpcd
Protocol: An excess of E2-CDS was sonicated with an aqueous solution of the appropriate solubilizing agent for 30 minutes. The suspension was then centrifuged, filtered through 0.45 µm polyvinylidene difluoride (Millex-HV4, Millipore®) membranes and analyzed by HPLC. […] An estimation of the bulk equilibrium constant was obtained by correlating the millimolarity of E2-CDS solubilized and the millimolarity of the cyclodextrin added. This latter value was calculated using the average molecular weight of the isomeric mixture determined by mass spectroscopy. The solubilizing effect of a 50% w/w solution of HPCD was also examined for a series of steroids and dihydropyridines (CDS). These studies were carried out in a similar manner to those previously described.
For the CDS, the wavelength monitored was 360 nm while for estrogen 220 nm was used.
Separation was achieved on an Analytical Sciences, Inc. (ASI) 10 µm particle size, C18 reversed phase 30 cm x 3.9 mm i.d. analytical column. The flow rate was 1 mL/min, the compounds were detected at 360 nm and in all determinations the temperature was ambient. […] For the GABA-CDS1, a mobile phase consisting of 50:1:1:48 of the same components was required. […] Other compounds were assayed spectrophotometrically.

[3] = Preparation of solid freeze-dried HPCD complexes: degree of incorporation; format: physicochemical
Protocol: An excess of E2-CDS was added and the solution then was purged with helium. The resulting suspension was then sonicated for 30 minutes, filtered through a glass filter (ASTM 10-15M, Pyrex No. 36060) and freeze-dried overnight. Best results were obtained by hard-freezing the aqueous solution of the E2-CDS/HPCD complex for at least 10 hours before lyophilization. The degree of complex formation was determined by dissolving a small amount of the dry complex in methanol and then analyzing by high pressure liquid chromatography (HPLC).
An excess of E2-CDS or other CDS was added to a 50% w/w solution of HPCD. The suspension was sonicated for 30 minutes, filtered through 0.45 µm PVDF membranes and freeze-dried. The degree of incorporation was determined either spectrophotometrically or by HPLC. In some cases, the effect of solubilizing agents on the degree of incorporation was examined. This involved adding small amounts of polyoxyethylene 20 cetyl ether (Brij), polyoxyethylene sorbitan monooleate (Tween 80) or ethanol to the aqueous solution prior to lyophilization.
The retention time was 5.2 min. Other compounds were assayed spectrophotometrically.
The solution was degassed and the suspension was sonicated for 30 minutes, after which it was filtered and the filtrate was lyophilized. The dried filtrate contained 65.6 mg testosterone propionate or 29.6 mg T-CDS1 per gram of cyclodextrin complex. Compounds were analyzed for decomposition by thin-layer chromatography and ultraviolet absorption.

CN1C=CCC(C(=O)O[C@H]2CC[C@H]3[C@@H]4CCC5=CC(=O)CC[C@]5(C)[C@H]4CC[C@]23C)=C1 [T-CDS1, 17β-[(1,4-dihydro-1-methyl-3-pyridinylcarbonyl)oxy]androst-4-en-3-one]
toxicity on administration ([1]; DMSO vehicle, i.v. injection or infusion): respiratory distress and/or death | toxicity on administration ([1]; complexed with HPCD, tail vein injection): No respiratory distress or animal loss | solubility [2]: 17.1 mg/mL (≈ 41.8 mM) | Amount of Drug in Dry Complex ([3]; freeze-dried complex from 50% w/w HPCD (ASDS 5.1)): 29.0 mg/g | drug content of dried filtrate ([3]; lyophilized from 50% w/v aqueous HPCD, degree of substitution 5.1): 29.6 mg per gram of cyclodextrin co
